The results in this text go back to the supplement of paper PMC11208160.
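Further: IS621 bridge recombinase in Escherichia coli cells against a fixed T5 target plasmid.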

This series in a line: recombinant UMI read abundance after kanamycin selection (control-corrected) (log10(CPM+1)); higher = more efficient recombination; extreme values may be limits of the assay; sequences stand for … in AGTGCAGAGAAAATCGGCCAGTTTTCTCTGCCTGCAGTCCGCATGCCGTGGGACCCCTTGGGTTCTAACCTGTTGCCTAGATTTATGCAGCGGACTGCCTTTCTCCCAAAGTGATAAACCGG…AGGTTGGTTTCACT; site = the 11-nt donor. The procedure:
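Pooled E. coli donor-specificity screen for the IS621 bridge recombinase. Each library member carries a reprogrammed 11-nt donor and a full-length LE bridge RNA expressed in cis from the natural promoter, with a paired donor-binding loop (8-nt LDG + 4-nt RDG) and a target-binding loop fixed to T5. It is co-electroporated with a T5 target plasmid; recombinase is induced with 0.07 mM IPTG and recombinants are selected on kanamycin. UMIs are counted as CPM, averaged over two biological replicates and corrected by the unselected control. Molecule = full bridge RNA written as DNA, built from the T5 scaffold: LDG = donor specificity nt 1-8, RDG = reverse complement of nt 8-11.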
For the sequence “ACAATGGCATGGACCGGTTTTCCCGGTAATCCGTATTTGAT (site ACAATGGCTAT)”, the “recombinant UMI read abundance (log10)” value was 2.3. As for “ACACAGCCATGGACCGGTTTTCCCGGTAATCCGTATTTGAC (site ACACAACCTGT)”, the figure is 0. The value for “ACACAGCCATGGACCGGTTTTCCCGGTAATCCGTATTTGAC (site ACACACCCTGT)” was 1.68; that for “ACACAGCCATGGACCGGTTTTCCCGGTAATCCGTATTTGAC (site ACACAGCCTGT)” was 1.05. On to “ACACAGCCATGGACCGGTTTTCCCGGTAATCCGTATTTGAC (site ACACATCCTGT)”, for which the “recombinant UMI read abundance (log10)” value came to 0.0116. As for “ACACAGCCATGGACCGGTTTTCCCGGTAATCCGTATTTGTG (site ACACAGCCTCA)”, the figure is 0.606; as for “ACACCAACATGGACCGGTTTTCCCGGTAATCCGTATTTGTC (site ACACAAACTGA)”, 0; as for “ACACCAACATGGACCGGTTTTCCCGGTAATCCGTATTTGTC (site ACACCAACTGA)”, 1.62.

Turning to “ACACCAACATGGACCGGTTTTCCCGGTAATCCGTATTTGTC (site ACACGAACTGA)”, the “recombinant UMI read abundance (log10)” value turned out to be 0. Turning to “ACACCAACATGGACCGGTTTTCCCGGTAATCCGTATTTGTC (site ACACTAACTGA)”, the “recombinant UMI read abundance (log10)” value is 0.

Regarding “ACACCACCATGGACCGGTTTTCCCGGTAATCCGTATTTGAT (site ACACCACCTAT)”, the “recombinant UMI read abundance (log10)” value was 0.00417. Regarding “ACACCTCCATGGACCGGTTTTCCCGGTAATCCGTATTTGAC (site ACACATCCTGT)”, the “recombinant UMI read abundance (log10)” value was determined as 0. The value for “ACACCTCCATGGACCGGTTTTCCCGGTAATCCGTATTTGAC (site ACACCTCCTGT)” was 1.93; that for “ACACCTCCATGGACCGGTTTTCCCGGTAATCCGTATTTGAC (site ACACGTCCTGT)” was 0; that for “ACACCTCCATGGACCGGTTTTCCCGGTAATCCGTATTTGAC (site ACACTTCCTGT)” was 0. On to “ACACGAACATGGACCGGTTTTCCCGGTAATCCGTATTTGAC (site ACACGAACTGA)”, for which the “recombinant UMI read abundance (log10)” value was determined as 1.64. As for “ACACGAACATGGACCGGTTTTCCCGGTAATCCGTATTTGAC (site ACACGAACTGC)”, the “recombinant UMI read abundance (log10)” value was found to be 0.

With “ACACGAACATGGACCGGTTTTCCCGGTAATCCGTATTTGAC (site ACACGAACTGG)”, the “recombinant UMI read abundance (log10)” value stood at 1.33. “ACACGAACATGGACCGGTTTTCCCGGTAATCCGTATTTGAC (site ACACGAACTGT)”: the “recombinant UMI read abundance (log10)” value came out at 2.62. With “ACACGAACATGGACCGGTTTTCCCGGTAATCCGTATTTGTG (site ACACGAACTAA)”, the “recombinant UMI read abundance (log10)” value was found to be 0.269. Turning to “ACACGAACATGGACCGGTTTTCCCGGTAATCCGTATTTGTG (site ACACGAACTCA)”, the “recombinant UMI read abundance (log10)” value was 1.91. Turning to “ACACGAACATGGACCGGTTTTCCCGGTAATCCGTATTTGTG (site ACACGAACTGA)”, the “recombinant UMI read abundance (log10)” value is 0. Turning to “ACACGAACATGGACCGGTTTTCCCGGTAATCCGTATTTGTG (site ACACGAACTTA)”, the “recombinant UMI read abundance (log10)” value came to 0.766. “ACACGACCATGGACCGGTTTTCCCGGTAATCCGTATTTGTC (site ACACGAACTGA)”: the “recombinant UMI read abundance (log10)” value came to 0.0114. Turning to “ACACGACCATGGACCGGTTTTCCCGGTAATCCGTATTTGTC (site ACACGACCTGA)”, the “recombinant UMI read abundance (log10)” value was 0.

Turning to “ACACGACCATGGACCGGTTTTCCCGGTAATCCGTATTTGTC (site ACACGAGCTGA)”, the “recombinant UMI read abundance (log10)” value amounted to 0.

For the sequence “ACACGACCATGGACCGGTTTTCCCGGTAATCCGTATTTGTC (site ACACGATCTGA)”, the “recombinant UMI read abundance (log10)” value was 1.22.

For the sequence “ACACGCACATGGACCGGTTTTCCCGGTAATCCGTATTTGTC (site ACACGAACTGA)”, the “recombinant UMI read abundance (log10)” value was 1.62. On to “ACACGCACATGGACCGGTTTTCCCGGTAATCCGTATTTGTC (site ACACGCACTGA)”, for which the “recombinant UMI read abundance (log10)” value came to 2.85. Regarding “ACACGCACATGGACCGGTTTTCCCGGTAATCCGTATTTGTC (site ACACGGACTGA)”, the “recombinant UMI read abundance (log10)” value amounted to 0. With “ACACGCACATGGACCGGTTTTCCCGGTAATCCGTATTTGTC (site ACACGTACTGA)”, the “recombinant UMI read abundance (log10)” value was 0.934. With “ACACGGACATGGACCGGTTTTCCCGGTAATCCGTATTTGTC (site ACACGAACTGA)”, the “recombinant UMI read abundance (log10)” value turned out to be 0. As for “ACACGGACATGGACCGGTTTTCCCGGTAATCCGTATTTGTC (site ACACGCACTGA)”, the figure is 0; as for “ACACGGACATGGACCGGTTTTCCCGGTAATCCGTATTTGTC (site ACACGGACTGA)”, 0.491; as for “ACACGGACATGGACCGGTTTTCCCGGTAATCCGTATTTGTC (site ACACGTACTGA)”, 0. Take “ACACGTCCATGGACCGGTTTTCCCGGTAATCCGTATTTGAT (site ACACGTCCTAT)”: the “recombinant UMI read abundance (log10)” value turned out to be 1.56.

On to “ACACTAGCATGGACCGGTTTTCCCGGTAATCCGTATTTGTG (site ACACTAGCTCA)”, for which the “recombinant UMI read abundance (log10)” value was 1.62. The value for “ACACTATCATGGACCGGTTTTCCCGGTAATCCGTATTTGCA (site ACAATATCTTG)” was 2.11.

“ACACTATCATGGACCGGTTTTCCCGGTAATCCGTATTTGCA (site ACACTATCTTG)”: the “recombinant UMI read abundance (log10)” value was 2.85. On to “ACACTATCATGGACCGGTTTTCCCGGTAATCCGTATTTGCA (site ACAGTATCTTG)”, for which the “recombinant UMI read abundance (log10)” value was 1.89. Regarding “ACACTATCATGGACCGGTTTTCCCGGTAATCCGTATTTGCA (site ACATTATCTTG)”, the “recombinant UMI read abundance (log10)” value was determined as 2.21. The value for “ACAGAAACATGGACCGGTTTTCCCGGTAATCCGTATTTGCA (site ACAGAAACTTG)” was 2.78; that for “ACAGAAACATGGACCGGTTTTCCCGGTAATCCGTATTTGCA (site ACAGTATCTTG)” was 0; that for “ACAGCAGCATGGACCGGTTTTCCCGGTAATCCGTATTTGCA (site ACAGCAGCTTG)” was 2.49. As for “ACAGCAGCATGGACCGGTTTTCCCGGTAATCCGTATTTGCA (site ACAGTATCTTG)”, the “recombinant UMI read abundance (log10)” value worked out at 0.

In the case of “ACAGCGTCATGGACCGGTTTTCCCGGTAATCCGTATTTGAC (site ACAGCGTCTGT)”, the “recombinant UMI read abundance (log10)” value stood at 3.29. On to “ACAGCTACATGGACCGGTTTTCCCGGTAATCCGTATTTGTG (site ACAACTACTCA)”, for which the “recombinant UMI read abundance (log10)” value came out at 0.815. Consider “ACAGCTACATGGACCGGTTTTCCCGGTAATCCGTATTTGTG (site ACACCTACTCA)”, for which the “recombinant UMI read abundance (log10)” value stood at 0.156. In the case of “ACAGCTACATGGACCGGTTTTCCCGGTAATCCGTATTTGTG (site ACAGCTACTCA)”, the “recombinant UMI read abundance (log10)” value was 1.44. As for “ACAGCTACATGGACCGGTTTTCCCGGTAATCCGTATTTGTG (site ACATCTACTCA)”, the figure is 0.0498.

Turning to “ACAGGAACATGGACCGGTTTTCCCGGTAATCCGTATTTGTC (site ACAAGAACTGA)”, the “recombinant UMI read abundance (log10)” value stood at 1.18. As for “ACAGGAACATGGACCGGTTTTCCCGGTAATCCGTATTTGTC (site ACACGAACTGA)”, the figure is 0.428; as for “ACAGGAACATGGACCGGTTTTCCCGGTAATCCGTATTTGTC (site ACAGGAACTGA)”, 2.43; as for “ACAGGAACATGGACCGGTTTTCCCGGTAATCCGTATTTGTC (site ACATGAACTGA)”, 0.289.

In the case of “ACAGGACCATGGACCGGTTTTCCCGGTAATCCGTATTTGGA (site ACAGGACCTTC)”, the “recombinant UMI read abundance (log10)” value came out at 0.00625. As to “ACAGGATCATGGACCGGTTTTCCCGGTAATCCGTATTTGCC (site ACAGGATCTGG)”, the “recombinant UMI read abundance (log10)” value came to 2.27. As for “ACAGGATCATGGACCGGTTTTCCCGGTAATCCGTATTTGCC (site ACAGTATCTTG)”, the figure is 0.

As for “ACAGGGTCATGGACCGGTTTTCCCGGTAATCCGTATTTGCA (site ACAGGGTCTTG)”, the “recombinant UMI read abundance (log10)” value was 3.2. With “ACAGGGTCATGGACCGGTTTTCCCGGTAATCCGTATTTGCA (site ACAGTATCTTG)”, the “recombinant UMI read abundance (log10)” value stood at 1.89.

“ACAGTACCATGGACCGGTTTTCCCGGTAATCCGTATTTGCC (site ACAGTACCTGG)”: the “recombinant UMI read abundance (log10)” value is 0.

“ACAGTACCATGGACCGGTTTTCCCGGTAATCCGTATTTGCC (site ACAGTATCTTG)”: the “recombinant UMI read abundance (log10)” value is 0.966.

With “ACAGTAGCATGGACCGGTTTTCCCGGTAATCCGTATTTGTA (site ACAGTAGCTTA)”, the “recombinant UMI read abundance (log10)” value is 2.87. With “ACAGTAGCATGGACCGGTTTTCCCGGTAATCCGTATTTGTA (site ACAGTATCTTG)”, the “recombinant UMI read abundance (log10)” value came to 1.49. Turning to “ACAGTATCATGGACCGGTTTTCCCGGTAATCCGTATTTGCG (site ACAGTATCTAG)”, the “recombinant UMI read abundance (log10)” value is 2.18.

For “ACAGTATCATGGACCGGTTTTCCCGGTAATCCGTATTTGCG (site ACAGTATCTCG)”, the “recombinant UMI read abundance (log10)” value was 3.51.
